From patent US20200069691A1, “HETEROCYCLIC COMPOUNDS AS HIV PROTEASE INHIBITORS” (Merck Sharp & Dohme Corp., priority 2016, published 2020)

Molecular target: T1, wild-type HIV-1 protease (Human immunodeficiency virus type 1 group M subtype B, UniProt P04585)
T1 construct: Escherichia coli expressed wild-type HIV-1 protease protein
Assay: Assay for Inhibition of Microbial Expressed HIV Protease (peptide substrate cleavage, LC-MS/MS readout)
Format: biochemical
Details: E. coli expressed wild-type HIV-1 protease, mean of at least two independent experiments, read-out: HIV Pr Enzyme HIV1 PR IC50
How it was run: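 Cleavage of Val-Ser-Gln-Asn-(β-naphthyl)Ala-Pro-Ile-Val (400 μM) by recombinant HIV-1 protease ([…]) ran 1 h at 30 °C after a 30 min room-temperature inhibitor preincubation in 50 mM sodium acetate pH 5.5. Product peak areas by LC-MS/MS gave inhibition; values average at least two independent runs.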

SMILES | IC50 [nM]
N=C1NC(c2ccc(F)cc2)(c2ccc(F)cc2)C(=O)N1Cc1cncc(C(=O)N2CCC(n3c(=O)[nH]c4ccccc43)CC2)c1 [Compound 392, 1-{1-[(5-{[4,4-bis(4-fluorophenyl)-2-imino-5-oxoimidazolidin-1-yl]methyl}pyridin-3-yl)carbonyl]piperidin-4-yl}-1,3-dihydro-2H-benzimidazol-2-one] | 61.7
N=C1N[C@](CCCC(F)(F)F)(c2ccc(F)cc2)C(=O)N1Cc1ccc(C(F)(F)F)c(C(=O)N2Cc3cnc(-c4cnn(-c5ccccc5)c4)nc3C2)c1 [Compound 72, (5R)-5-(4-fluorophenyl)-2-imino-3-[3-{[2-(1-phenyl-1H-pyrazol-4-yl)-5,7-dihydro-6H-pyrrolo[3,4-d]pyrimidin-6-yl]carbonyl}-4-(trifluoromethyl)benzyl]-5-(4,4,4-trifluorobutyl)imidazolidin-4-one] | 9.2
CC(C)CCC1(c2ccccc2)NC(=N)N(Cc2ccc(C(F)(F)F)c(C(=O)N3CCCC3)c2)C1=O (stereo not shown) [Compound 170, 2-imino-5-(3-methylbutyl)-5-phenyl-3-[3-(pyrrolidin-1-ylcarbonyl)-4-(trifluoromethyl)benzyl] imidazolidin-4-one] | 40.3
CC(C)NC(=O)N1CCN(C(=O)c2cccc(CN3C(=N)NC(c4ccccc4)(c4ccccc4)C3=O)c2)CC1 [Compound 326, 4-({3-[(2-imino-5-oxo-4,4-diphenylimidazolidin-1-yl)methyl]phenyl}carbonyl)-N-(1-methylethyl) piperazine-1-carboxamide] | 59.4
N=C1NC(c2ccc(F)cc2)(c2ccc(F)cc2)C(=O)N1Cc1ccc(F)c(C(=O)N2Cc3nccnc3C2)c1 [Compound 382, 3-[3-(5,7-dihydro-6H-pyrrolo[3,4-b]pyrazin-6-ylcarbonyl)-4-fluorobenzyl]-5,5-bis(4-fluorophenyl)-2-iminoimidazolidin-4-one] | 13.1
CC(C)CC(c1ccc(C(F)(F)F)c(C(=O)N2CCn3c(nnc3C(F)(F)F)C2)c1)N1C(=N)N[C@](C[C@@H]2CCOC2)(c2ccc(F)cc2)C1=O (stereo partly drawn) [Compound 123, (5R)-5-(4-fluorophenyl)-2-imino-3-{3-methyl-1-[4-(trifluoromethyl)-3-{[3-(trifluoromethyl)-5,6-dihydro-[1,2,4]triazolo[4,3-a]pyrazin-7(8H)-yl]carbonyl}phenyl]butyl}-5-[(3R)-tetrahydrofuran-3-ylmethyl]-imidazolidin-4-one] | 55.7
CC(C)CC[C@]1(c2ccccc2)NC(=N)N(Cc2ccc(C(F)(F)F)c(C(=O)N3Cc4nccnc4C3)c2)C1=O [Compound 30, (5R)-3-[3-(5,7-dihydro-6H-pyrrolo[3,4-b]pyrazin-6-ylcarbonyl)-4-(trifluoromethyl)-benzyl]-2-iirrino-5-(3-methylbutyl)-5-phenylimidazolidin-4-one] | 3.08
CC(C)C[C@]1(c2ccccc2)NC(=N)N(Cc2cnc(C(F)(F)F)c(C(=O)N3Cc4nccnc4C3)c2)C1=O [Compound 390, (5R)-3-{[5-(5,7-dihydro-6H-pyrrolo[3,4-b]pyrazin-6-ylcarbonyl)-6-(trifluoromethyl)pyridin-3-yl]methyl}-2-imino-5-(2-methylpropyl)-5-phenylimidazolidin-4-one] | 8.45
CC(C)CC1(c2ccccc2)NC(=N)N(Cc2cccc(C(=O)N3Cc4nccnc4C3)c2)C1=O (stereo not shown) [Compound 235, 3-[3-(5,7-dihydro-6H-pyrrolo[3,4-b]pyrazin-6-ylcarbonyl)benzyl]-2-imino-5-(2-methylpropyl)-5-phenylimidazolidin-4-one] | 14.4
CC(C)CC[C@]1(c2ccc(F)cc2)NC(=N)N(C(c2ccc(C(F)(F)F)c(C(=O)N3Cc4nccnc4C3)c2)C2CCCC2)C1=O (stereo partly drawn) [Compound 101, (5R)-3-{cyclopentyl[3-(5,7-dihydro-6H-pyrrolo[3,4-b]pyrazin-6-ylcarbonyl)-4-(trifluoromethyl)-phenyl]methyl}-5-(4-fluorophenyl)-2-imino-5-(3-methylbutyl)-imidazolidin-4-one] | 23.2
